Test results: patent US20250332170A1, “VANDETANIB REDUCES INFLAMMATORY CYTOKINES AND AMELIORATES COVID-19” (Collaborations Pharmaceuticals, Inc., priority 2021, published 2025)
“Also recorded” adds a separate entry of the source.

Tested on: Pseudo SARS-CoV-2 D614G
Format: cell-based

SMILES | SARS-CoV-2 Spike protein-mediated entry, pseudovirus assay
CN1CCN(c2ccc(C(=O)Nc3n[nH]c4ccc(Cc5cc(F)cc(F)c5)cc34)c(NC3CCOCC3)c2)CC1 [Entrectinib] | no significant activity
COc1cc2c(Nc3ccc(Br)cc3F)ncnc2cc1OCC1CCN(C)CC1 [Vandetanib] | active; also recorded: decreased viral entry
